This note sets out measurements from patent US10160785B2, “Antimicrobial peptides and their use for the treatment of topical infections” (priority 2015, dated 2018).

The nature of one data set: in vitro. As to conditions: human. On the procedure: The peptides in the concentrations 2-200 μmol.l^−1 were incubated with the suspension of human red blood cells (5% v/v) for 1 h at 37° C. in a physiological solution at a final volume of 0.2 ml. The samples were then centrifuged for 5 min at 250 g, and the absorbance of the supernatant was determined at 540 nm. Supernatants of red blood cells suspended in physiological solution and in 0.2% (v/v) TRITON X100 in physiological solution served as controls for zero hemolysis (blank) and 100% hemolysis, respectively. Hemolytic activity is expressed as the peptide concentration required for lysis of 50% of human erythrocytes in the assay (LC50).

Data set [1] deals with P. aeruginosa (Liberec) biofilm. Description: Bacterial biofilm, remaining metabolic activity (MTT). Type of data set: cell-based, Pseudomonas aeruginosa. As to conditions: remaining metabolic activity of biofilm, 20 h. On the procedure: (§1) Inoculum of S. aureus (Liberec) or P. aeruginosa (Liberec) cultivated overnight in BHI medium was diluted with fresh BHI medium containing 1% glucose to a final concentration to be ca. 10^8 CFU/ml. Then this was pipetted (100 μl) to 96-multiwell polystyrene plate which was incubated at 37° C. under rotary shaking (300 RPM) for 24 h. Medium without bacteria in the wells was used as a negative control. Supernatant from each well was drained and the biofilm formed on the bottom and on the walls of the wells was cautiously washed three times by sterile physiological solution (300 μl). The peptides tested in the concentrations of 1-128 μmol.l^−1 were prepared by twofold serial dilution of their stock solution (1 mmol.l^−1) in fresh BHI medium and then pipetted (100 μl) to the wells with formed biofilms. The biofilms covered by BHI medium without peptide were used as a positive control. The plates were then incubated for 20 h as described above. After that the liquid was drained out and wells were washed twice with sterile physiological solution.
(§2) The metabolic activity of surviving bacterial cells in the biofilm was determined by staining with MTT (3-(4,5-dimethylthiazol-2-yl)-2,5-diphenyl-2H-tetrazolium bromide) as follows: The mixture of BHI medium (100 μl) and 10 μl of the stock solution of MTT (5 mg/ml in physiological solution) was added to each well and the plate was incubated 40 min at 37° C. The liquid was drained out and the insoluble formazan crystals formed by reduction inside the biofilm were dissolved with dimethyl sulphoxide (100 μl). The intensity of staining in each well was measured as absorbance at 540 nm on a Tecan Infinite M200 Pro reader (Tecan GmbH, Austria). Remaining activity of surviving cells inside the biofilm was expressed for each well in percentage according to the following equation:
(§3) [formula] where A is the absorbance of the tested compound, ABL is the absorbance of the negative control, and AC is the absorbance of control biofilm.

For data set [2], the system named is S. aureus (Liberec) biofilm. Described as above. Type of data set: cell-based, Staphylococcus aureus. As to conditions: remaining metabolic activity of biofilm, 20 h. On the procedure:
as §1, §2, §3

The subject of data set [3] is Candida albicans (Olomouc) biofilm. Description: C. albicans biofilm, remaining metabolic activity (XTT). Type of data set: cell-based. How it is done: Candida albicans (Olomouc) was sub-cultured overnight in YPD medium (10 g yeast extract (DIFCO, USA), 20 g peptone (OXOID), 20 g glucose (Penta) dissolved in 1 L of distilled water) at constant shaking (100 RPM) at 37° C. Next day, the overnight culture was diluted 1:100 into fresh YPD medium and incubated at constant shaking (200 RPM) at 37° C. until the mid-exponential growth phase was reached. Then the cells were harvested and washed twice by centrifugation in physiological solution (5000 RPM; 5 min). Cells were suspended in sterile salt solution and their optical density was determined at 600 nm.
A final yeast suspension was prepared at a cell density of 1×10^6 CFU (corresponding to optical density of 0.17 at 600 nm) in RPMI 1640 medium with L-glutamine (BioSera), NaHCO3 (2 g/l; Penta) and 0.165 mol.l^−1 MOPS (Duchefa)—further as RPMI broth medium 1.
Biofilms were formed on commercially available sterile, polystyrene, flat-bottomed, 96-well microtiter plates (TPP, SW). Cell suspension (100 μl) was pipetted into selected wells of a microtiter plate and incubated without shaking for 2 hours at 37° C. Afterwards, the wells were washed twice with sterile PBS buffer (1.44 g Na2HPO4, 0.24 g KH2PO4, 0.2 g KCl and 8 g NaCl in 1 l distilled water, pH=7; Penta). Fresh RPMI broth medium 1 (100 μl) was added to each well and the plate was sealed with parafilm and incubated without shaking for 48 hours at 37° C.
Planktonic and non-adherent cells were removed by threefold washing of the biofilm with sterile PBS buffer (200 μl). A twofold serial dilution was used to reach required peptide concentration (in RPMI broth medium 1) in each well. Peptide concentrations range was between 0.39-200 μmol.l^−1. Plates were then sealed with parafilm and incubated for 20 hours at 37° C.
The metabolic activity of surviving Candida cells in the treated biofilm was determined by staining with XTT (2,3-Bis(2-methoxy-4-nitro-5-sulphophenyl)-2H-tetrazolium-5-carboxanilide). Stock solution of PMS (phenazine methosulfate; 7.5 g/l; SIGMA, Czech Republic) stored at −20° C. was diluted in PBS buffer 1:100. Diluted PMS was further mixed (2:25) with stock solution of XTT (0.5 g/l; Alchimica, Slovakia) dissolved in PBS/RPMI broth medium (1:1). Mixture (100 μl) of PMS and XTT was added into treated biofilm in the wells and incubated for 90 min at 37° C. Then the intensity of staining in each well was measured as absorbance at 540 nm on a Tecan Infinite M200 Pro reader (Tecan GmbH, Austria). Remaining metabolic activity of the cells in the biofilm was expressed for each well in percentage and calculated as follows:
[formula] where A is the absorbance of tested compound, ABL is the absorbance of negative control and AC is the absorbance of control untreated biofilm. The non-inoculated wells served as negative control. Inoculated wells not treated with compound served as positive control. Amphotericin B was used as control drug to ensure quality of Candida albicans. The values of remaining metabolic activity of treated biofilms are shown at Table 5.

Where [4] appears, read: peptide concentration 8 μmol · l^−1.
The mark [5] stands for this setting: peptide concentration 16 μmol · l^−1.
The mark [6] stands for this setting: peptide concentration 32 μmol · l^−1.
Setting [7] is: peptide concentration 64 μmol · l^−1.
The mark [8] stands for this setting: peptide concentration 128 μmol · l^−1.
Where [9] appears, read: peptide concentration 6.25 μmol · l^−1, 20 hours.
The mark [10] stands for this setting: peptide concentration 12.5 μmol · l^−1, 20 hours.
The mark [11] stands for this setting: peptide concentration 25 μmol · l^−1, 20 hours.
[12] abbreviates: peptide concentration 50 μmol · l^−1, 20 hours.
The mark [13] stands for this setting: peptide concentration 100 μmol · l^−1, 20 hours.
Where [14] appears, read: peptide concentration 200 μmol · l^−1, 20 hours.

Where a SMILES comes first, the peptide text is derived from it.

In turn, H-GIMSSLMKKLAAHIKK-NH2 [VIII] returned an HC50 at 1 h in “in vitro” of more than 400 µM.

On to H-GIMSSLMKKLAAIIKK-NH2 [IX], for which the “Metabolic activity (%) P. aeruginosa (Liberec)” value in data set [1] (setting [4]) was 73.6%; in data set [1] (setting [5]), 76.8%; in data set [1] (setting [6]) it was 85.3%; in data set [1] (setting [7]), 83.8%; in data set [1] (setting [8]), 34.2%. Also, the “Metabolic activity (%) S. aureus (Liberec)” value came to 79.1% in data set [2] (setting [4]); 53.6% in data set [2] (setting [5]); 54.0% in data set [2] (setting [6]); 30.5% in data set [2] (setting [7]); 23.6% in data set [2] (setting [8]). Also, the “Metabolic activity of C. albicans (%)” value in data set [3] (setting [9]) was 93.2%; in data set [3] (setting [10]) it was 54.3%; in data set [3] (setting [11]), 2.3%; in data set [3] (setting [12]) it was 1.5%; in data set [3] (setting [13]), 1.3%; in data set [3] (setting [14]), 0.8%. This compound also came in with a CC50 at 1 h in the data set “in vitro” of more than 400 µM.

Consider `NCC[C@H](O)C(=O)N[C@@H]1C[C@H](N)[C@@H](O[C@H]2O[C@H](CN)[C@@H](O)[C@H](O)[C@H]2O)[C@H](O)[C@H]1O[C@H]1O[C@H](CO)[C@@H](O)[C@H](N)[C@H]1O` [Amikacin, reference compound], for which the “Metabolic activity (%) P. aeruginosa (Liberec)” value is given as 80.0% in data set [1] (setting [4]); 62.9% in data set [1] (setting [5]); 40.4% in data set [1] (setting [6]); 20.3% in data set [1] (setting [7]); 11.8% in data set [1] (setting [8]). Moreover, the “Metabolic activity (%) S. aureus (Liberec)” value in data set [2] (setting [4]) came out at 95.4%; in data set [2] (setting [5]), 102.4%; in data set [2] (setting [6]) it was 108.7%; in data set [2] (setting [7]), 82.4%; in data set [2] (setting [8]) it was 104.0%.

As to `CN[C@H](CC(C)C)C(=O)N[C@H]1C(=O)N[C@@H](CC(N)=O)C(=O)N[C@H]2C(=O)N[C@H]3C(=O)N[C@H](C(=O)N[C@H](C(=O)O)c4cc(O)cc(O)c4-c4cc3ccc4O)[C@H](O)c3ccc(c(Cl)c3)Oc3cc2cc(c3O[C@@H]2O[C@H](CO)[C@@H](O)[C@H](O)[C@H]2O[C@H]2C[C@](C)(N)[C@H](O)[C@H](C)O2)Oc2ccc(cc2Cl)[C@H]1O` [Vancomycin, reference compound], the “Metabolic activity (%) S. aureus (Liberec)” value in data set [2] (setting [4]) is 52.8%; in data set [2] (setting [5]), 15.9%; in data set [2] (setting [6]), 9.7%; in data set [2] (setting [7]) it was 8.5%; in data set [2] (setting [8]) it was 6.3%.

Regarding `CC[C@@H](C)[C@@H](NC(=O)CN)C(=O)N[C@H](CC(C)C)C(=O)N[C@H](CO)C(=O)N[C@H](CO)C(=O)N[C@H](CC(C)C)C(=O)N[C@H](Cc1c[nH]c2ccccc12)C(=O)N[C@H](CCCCN)C(=O)N[C@H](CCCCN)C(=O)N[C@H](CC(C)C)C(=O)N[C@H](CCCCN)C(=O)N[C@H](CCCCN)C(=O)N[C@@H](C(=O)N[C@@H](C(=O)N[C@H](C)C(=O)N[C@H](CCCCN)C(N)=O)[C@H](C)CC)[C@H](C)CC` [XIII] (HELM PEPTIDE1{G.[dI].[dL].[dS].[dS].[dL].[dW].[dK].[dK].[dL].[dK].[dK].[dI].[dI].[dA].[dK].[am]}$$$$V2.0), the “Metabolic activity (%) P. aeruginosa (Liberec)” value was 71.2% in data set [1] (setting [4]); 65.8% in data set [1] (setting [5]); 61.2% in data set [1] (setting [6]); 73.6% in data set [1] (setting [7]); 23.0% in data set [1] (setting [8]). The “Metabolic activity (%) S. aureus (Liberec)” value in data set [2] (setting [4]) worked out at 71.6%; in data set [2] (setting [5]) it was 33.8%; in data set [2] (setting [6]), 21.5%; in data set [2] (setting [7]), 20.4%; in data set [2] (setting [8]), 5.3%. The “Metabolic activity of C. albicans (%)” value in data set [3] (setting [9]) came out at 78.3%; in data set [3] (setting [10]), 56.9%; in data set [3] (setting [11]), 37.2%; in data set [3] (setting [12]), 10.9%; in data set [3] (setting [13]), 5.8%; in data set [3] (setting [14]), 4.9%. For the same compound, the CC50 at 1 h in the data set “in vitro” was 191 µM.

For H-GILSSLLKKLKKIIAK-NH2 [III], the “Metabolic activity (%) S. aureus (Liberec)” value in data set [2] (setting [4]) turned out to be 87.8%; in data set [2] (setting [5]), 89.6%; in data set [2] (setting [6]), 78.4%; in data set [2] (setting [7]), 15.9%; in data set [2] (setting [8]) it was 2.4%. Also, the “Metabolic activity of C. albicans (%)” value in data set [3] (setting [9]) was 104.7%; in data set [3] (setting [10]), 113.6%; in data set [3] (setting [11]) it was 87.2%; in data set [3] (setting [12]), 31.1%; in data set [3] (setting [13]) it was 28.4%; in data set [3] (setting [14]), 0.0%. For the same compound, the CC50 at 1 h in “in vitro” was 284 µM.
